Assay results as given in publication PMC5504357, “Antifungal Potential of Copper(II), Manganese(II) and Silver(I) 1,10-Phenanthroline Chelates Against Multidrug-Resistant Fungal Species Forming the Candida haemulonii Complex: Impact on the Planktonic and Biofilm Lifestyles” (Frontiers in Microbiology, 2017).

How the values were obtained:
C. haemulonii complex = test: Planktonic growth, overall across all nine isolates; assay type: cell-based, Candida haemulonii complex; settings: geometric mean across all nine strains; for MIC: in μM, read-out: Overall GM-MIC
In short: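 Isolates were precultured in Sabouraud-dextrose with shaking for 48 h at 37°C. Test agents were then serially diluted in RPMI 1640 (0.0625-32 mg/L) per CLSI M27-A3. Plates were incubated 48 h at 37°C and scored visually for the lowest growth-free concentration, with a geometric mean across isolates.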

Candida duobushaemulonii = test: Biofilm-growing cells, XTT assay, bMIC; assay type: cell-based; settings: for GM-bMIC: geometric mean, C. duobushaemulonii isolates; for bMIC: mature biofilm, 48 h, 50% inhibition of metabolic activity
In short: (§1)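 Activity against established biofilms: 48 h growth at 37°C in Sabouraud-dextrose broth from 10^6 yeast cells, three PBS washes, then 48 h with compounds. The endpoint was XTT-formazan formation, scored as the concentration halving metabolic activity.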

[1] = tested on: Candida haemulonii var. vulnera; test: Biofilm-growing cells, XTT assay, bMIC; assay type: cell-based; settings: for GM-bMIC: geometric mean, C. haemulonii var. vulnera isolates; for bMIC: mature biofilm, 48 h, 50% inhibition of metabolic activity
In short: as §1

Candida haemulonii = test: Biofilm-growing cells, XTT assay, bMIC; assay type: cell-based; settings: for GM-bMIC: geometric mean, C. haemulonii isolates, values marked * do not include LIP Ch4 (>512); for bMIC: mature biofilm, 48 h, 50% inhibition of metabolic activity
In short: as §1

[2] = tested on: Candida haemulonii complex; test: Biofilm-growing cells, overall across isolates; assay type: cell-based; settings: for Overall GM-bMIC: geometric mean across strains, values marked * do not include LIP Ch4 (>512)
In short: as §1

Solubility in solvents = assay type: physicochemical; settings: solvents as named
Protocol: {[Cu(3,6,9-tdda)(phen)2].3H2O.EtOH}n (7). Step (i): Copper(II) acetate hydrate (1.50 g; 7.51 mmol) was dissolved in ethanol (50 mL) and the solution was added to an ethanolic solution (25 mL) of 3,6,9-trioxaundecanedioic acid (3,6,9-tddaH2) (2.84 g; […]). The light-green suspension was refluxed for 1 h, and after cooling to room temperature the light-green solid, [Cu(3,6,9-tdda)].H2O, was filtered off, washed with cold ethanol and air dried. Yield: 1.88 g (82.97%). % Calculated: C: 31.84, H: 4.68. % Found: C: 32.20, H: 4.60. […] Step (ii): [Cu(3,6,9-tdda)].H2O (1.00 g; 3.31 mmol) and phen (2.39 g; 13.26 mmol) were dissolved together in ethanol (50 mL) and the resulting dark-green mixture was refluxed for 2 h. The suspension was cooled and the green solid, {[Cu(3,6,9-tdda)(phen)2]3H2O.EtOH}n(7), was filtered off, washed with cold ethanol and air dried. Yield: 1.63 g (66.09%). % Calculated: C: 54.87, H: 5.42, N: 7.53. % Found: C: 54.65, H: 5.63, N: 7.39.
[Ag2(3,6,9-tdda)(phen)4].EtOH (16). Step (i): Silver(I) acetate (3.00 g; 17.97 mmol) was dissolved in ethanol (30 mL) and the solution was added to an ethanolic solution (25 mL) of 3,6,9-trioxaundecanedioic acid (3,6,9-tddaH2) (2.84 g; 8.95 mmol) and the orange-brown suspension refluxed for 3 h. […] Green [Ag2(3,6,9-tdda)(phen)4].EtOH (16) precipitated and was filtered off, washed with cold ethanol and air dried. Yield: 0.83 g (65.10%). % Calculated: C: 57.92, H: 4.19, N: 9.32. % Found: C: 57.75, H: […], N: 9.02. IR (KBr) νmax: 3380, 3046, 2905, 1978, 1804, 1618, 1585, 1509, 1421, 1322, 1263, 1215, 1121, 1077, 1018, 932, 890, 838, 726, 621, 465, 413 cm^−1. ^1H NMR (500 MHz, DMSO-d6, 313 K, TMS) δ = 9.12(8H, s), 8.63 (8H, d), 8.08 (8H, s), 7.91 (8H, dd), 3.74 (4H, s), 3.57 (8H, dd). ^13C NMR (125 MHz, DMSO-d6, 313 K, TMS) δ = 173.41, 151.28, 143.57, 138.03, 129.24, 127.37, 124.74, 71.44, 70.42, 69.74.

Compound: {[Cu(3,6,9-tdda)(phen)2].3H2O.EtOH}n [compound 7]
- Overall GM-MIC (C. haemulonii complex): 2.52 µg/mL
- MIC (C. haemulonii complex): 3.37 µM
- GM-bMIC (Candida duobushaemulonii): 8 mg/L
- bMIC (Candida duobushaemulonii; isolate LIP Ch1): 16 mg/L
- bMIC (Candida duobushaemulonii; isolate LIP Ch6): 4 mg/L
- bMIC (Candida duobushaemulonii; isolate LIP Ch8): 8 mg/L
- GM-bMIC [1]: 3.17 mg/L
- bMIC ([1]; isolate LIP Ch5): 4 mg/L
- bMIC ([1]; isolate LIP Ch9): 4 mg/L
- bMIC ([1]; isolate LIP Ch13): 2 mg/L
- GM-bMIC (Candida haemulonii): 8 mg/L
- bMIC (Candida haemulonii; isolate LIP Ch4): 32 mg/L
- bMIC (Candida haemulonii; isolate LIP Ch7): 4 mg/L
- bMIC (Candida haemulonii; isolate LIP Ch14): 4 mg/L
- Overall GM-bMIC [2]: 5.88 mg/L
- Solubility (Solubility in solvents): soluble in H2O, MeOH, EtOH and insoluble in ethyl acetate and acetone

Compound: CCO.O=C([O-])COCCOCCOCC(=O)[O-].[Ag+].[Ag+].c1cnc2c(c1)ccc1cccnc12.c1cnc2c(c1)ccc1cccnc12.c1cnc2c(c1)ccc1cccnc12.c1cnc2c(c1)ccc1cccnc12 [compound 16, [Ag2(3,6,9-tdda)(phen)4].EtOH]
- Overall GM-MIC (C. haemulonii complex): 1 µg/mL
- MIC (C. haemulonii complex): 0.83 µM
- GM-bMIC (Candida duobushaemulonii): 6.35 mg/L
- bMIC (Candida duobushaemulonii; isolate LIP Ch1): 4 mg/L
- bMIC (Candida duobushaemulonii; isolate LIP Ch6): 8 mg/L
- bMIC (Candida duobushaemulonii; isolate LIP Ch8): 8 mg/L
- GM-bMIC [1]: 2.52 mg/L
- bMIC ([1]; isolate LIP Ch5): 4 mg/L
- bMIC ([1]; isolate LIP Ch9): 1 mg/L
- bMIC ([1]; isolate LIP Ch13): 4 mg/L
- GM-bMIC (Candida haemulonii): 16 mg/L
- bMIC (Candida haemulonii; isolate LIP Ch4): 32 mg/L
- bMIC (Candida haemulonii; isolate LIP Ch7): 16 mg/L
- bMIC (Candida haemulonii; isolate LIP Ch14): 8 mg/L
- decrease in activity on going from planktonic to biofilm cells ([2]; biofilm MIC versus planktonic MIC): 6.3 fold
- Overall GM-bMIC [2]: 6.35 mg/L
- Solubility (Solubility in solvents): soluble in H2O, MeOH, EtOH and insoluble in ethyl acetate and acetone
